Assays:
[1] = system: NCI-H522; conditions: NCI-H522, Non-Small Cell Lung Cancer; besylate salt
[2] = system: SF-295; experiment: cells; conditions: Homo sapiens, SF-295, read-out: LC50
[3] = system: SF-295; conditions: SF-295, CNS Cancer; besylate salt
[4] = system: CAKI-1; experiment: cells; conditions: Homo sapiens
[5] = system: CCRF-CEM; experiment: cells; conditions: Homo sapiens, read-out: LC50
[6] = system: SF-268; experiment: cells; conditions: Homo sapiens
[7] = system: COLO 205; experiment: cells; conditions: Homo sapiens
[8] = system: RXF 393; conditions: RXF 393, Renal Cancer; besylate salt
[9] = system: HS 578T; experiment: cells; conditions: Homo sapiens
[10] = system: MCF7; experiment: cells; conditions: Homo sapiens
[11] = system: UO-31; conditions: UO-31, Renal Cancer; besylate salt
[12] = system: OVCAR-8; experiment: cells; conditions: Homo sapiens
[13] = system: ACHN; conditions: Renal Cancer, besylate salt
[14] = system: OVCAR-8; conditions: OVCAR-8, Ovarian Cancer; besylate salt
[15] = system: 786-0; conditions: 786-0, Renal Cancer; besylate salt
[16] = system: TK-10; conditions: TK-10, Renal Cancer; besylate salt
[17] = system: SK-MEL-28; experiment: cells; conditions: Homo sapiens
[18] = system: SNB-19; conditions: SNB-19, CNS Cancer; besylate salt
[19] = system: BT-549; conditions: BT-549, Breast Cancer; besylate salt
[20] = system: 786-0; experiment: cells; conditions: Homo sapiens
[21] = system: SN12C; experiment: cells; conditions: Homo sapiens
[22] = system: MOLT-4; conditions: MOLT-4, Leukemia; besylate salt
[23] = system: HOP-92; experiment: cells; conditions: Homo sapiens
[24] = system: A549/ATCC; conditions: Non-Small Cell Lung Cancer, besylate salt
[25] = system: OVCAR-3; conditions: OVCAR-3, Ovarian Cancer; besylate salt
[26] = system: OVCAR-5; experiment: cells; conditions: Homo sapiens
[27] = system: SNB-75; experiment: cells; conditions: Homo sapiens
[28] = system: LOX I MVI; experiment: cells; conditions: Homo sapiens, LOX IMVI
[29] = system: NCI-H322M; conditions: Non-Small Cell Lung Cancer, besylate salt
[30] = system: SK-MEL-2; experiment: cells; conditions: Homo sapiens
[31] = system: NCI-H460; conditions: NCI-H460, Non-Small Cell Lung Cancer; besylate salt
[32] = system: SW-620; experiment: cells; conditions: Homo sapiens, SW-620, read-out: LC50
[33] = system: HOP-62; conditions: HOP-62, Non-Small Cell Lung Cancer; besylate salt
[34] = system: NCI-H322M; experiment: cells; conditions: Homo sapiens
[35] = system: OVCAR-5; conditions: OVCAR-5, Ovarian Cancer; besylate salt
[36] = system: SK-MEL-28; conditions: SK-MEL-28, Melanoma; besylate salt
[37] = system: TK-10; experiment: cells; conditions: Homo sapiens, TK-10, read-out: LC50
[38] = system: U251; conditions: U251, CNS Cancer; besylate salt

For `COc1cc(Nc2ncc(F)c(Nc3ccc4c(n3)NC(=O)C(C)(C)O4)n2)cc(OC)c1OC` [Compound 1], the TGI [1] was >1.00E−4, the CC50 [2] was > 100 µM and the TGI [3] was >1.00E−4. The IC50 ([4]; CAKI-1, read-out: G150) was 0.0515 µM, the CC50 ([4]; CAKI-1, read-out: LC50) was > 100 µM and the CC50 [5] was > 100 µM. The IC50 ([6]; SF-268, read-out: G150) was 1.7 µM, the CC50 ([6]; SF-268, read-out: LC50) was > 100 µM and the IC50 ([7]; COLO 205, read-out: G150) was 7.26 µM. The CC50 ([7]; COLO 205, read-out: LC50) was > 100 µM, the TGI [8] was 7.74E−7 and the IC50 ([9]; read-out: G150) was 1.19 µM. The CC50 ([9]; read-out: LC50) was > 100 µM, the IC50 ([10]; MCF7, read-out: G150) was 2.72 µM and the CC50 ([10]; MCF7, read-out: LC50) was > 100 µM. The TGI [11] was >1.00E−4, the IC50 ([12]; OVCAR-8, read-out: G150) was > 100 µM and the CC50 ([12]; OVCAR-8, read-out: LC50) was > 100 µM. The TGI [13] was >1.00E−4, the TGI [14] was >1.00E−4 and the TGI [15] was >1.00E−4. For the same molecule, the TGI [16] was >1.00E−4, the IC50 ([17]; SK-MEL-28, read-out: G150) was > 100 µM and the CC50 ([17]; SK-MEL-28, read-out: LC50) was > 100 µM. For the same molecule, the TGI [18] was >1.00E−4, the TGI [19] was >1.00E−4 and the IC50 ([20]; 786-0, read-out: G150) was 0.873 µM. For the same molecule, the CC50 ([20]; 786-0, read-out: LC50) was > 100 µM, the IC50 ([21]; read-out: G150) was 0.698 µM and the CC50 ([21]; read-out: LC50) was > 100 µM. For the same molecule, the TGI [22] was >1.00E−4, the IC50 ([23]; HOP-92, read-out: G150) was 0.41 µM and the CC50 ([23]; HOP-92, read-out: LC50) was > 100 µM. The TGI [24] was >1.00E−4, the TGI [25] was >1.00E−4 and the IC50 ([26]; OVCAR-5, read-out: G150) was > 100 µM. The CC50 ([26]; OVCAR-5, read-out: LC50) was > 100 µM, the IC50 ([27]; SNB-75, read-out: G150) was 0.871 µM and the CC50 ([27]; SNB-75, read-out: LC50) was > 100 µM. The IC50 ([28]; read-out: G150) was 1.13 µM, the CC50 ([28]; read-out: LC50) was > 100 µM and the TGI [29] was >1.00E−4. The IC50 ([30]; SK-MEL-2, read-out: G150) was > 100 µM, the CC50 ([30]; SK-MEL-2, read-out: LC50) was > 100 µM and the TGI [31] was >1.00E−4. For the same molecule, the CC50 [32] was > 100 µM, the TGI [33] was >1.00E−4 and the IC50 ([34]; read-out: G150) was > 100 µM. The CC50 ([34]; read-out: LC50) was > 100 µM, the TGI [35] was >1.00E−4 and the TGI [36] was >1.00E−4. The CC50 [37] was > 100 µM and the TGI [38] was >1.00E−4.

Reference: patent US20090048214A1, “Methods for Treating Renal Tumors Using 2, 4-Pyrimidinediamine Drug and Prodrug Compounds” (RIGEL PHARMACEUTICALS, INC, priority 2006, published 2009)
